What follows are compounds tested against IRAK4 (Homo sapiens (Human), UniProt Q9NWZ3) (assay: In vitro IRAK4 phosphorylation activity assay). Details: [γ-33P]-ATP, myelin basic protein substrate, 40 minutes at room temperature; categories.
Sequence of IRAK4 (Q9NWZ3 whole entry): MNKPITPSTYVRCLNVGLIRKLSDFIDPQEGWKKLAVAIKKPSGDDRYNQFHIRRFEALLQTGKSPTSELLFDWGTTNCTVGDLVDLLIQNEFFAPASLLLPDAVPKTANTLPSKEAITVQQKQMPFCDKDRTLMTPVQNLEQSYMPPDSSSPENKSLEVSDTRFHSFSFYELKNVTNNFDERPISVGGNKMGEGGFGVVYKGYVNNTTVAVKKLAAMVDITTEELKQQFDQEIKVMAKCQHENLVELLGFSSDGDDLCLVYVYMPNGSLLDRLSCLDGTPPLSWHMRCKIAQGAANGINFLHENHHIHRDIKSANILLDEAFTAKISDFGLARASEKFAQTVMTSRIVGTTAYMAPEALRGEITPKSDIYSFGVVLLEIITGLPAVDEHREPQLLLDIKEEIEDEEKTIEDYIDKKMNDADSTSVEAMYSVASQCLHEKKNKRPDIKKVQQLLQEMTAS
Type: biochemical
How it was run: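 Radiometric filter-binding assay, no compound–kinase preincubation; 8 mM MOPS pH 7.0, 0.2 mM EDTA, 10 mM Mg acetate, 0.33 mg/mL myelin basic protein substrate, [γ-33P]-ATP. Reaction 40 min at room temperature, stopped with phosphoric acid, scintillation counting; IC50 reported in categories.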
Compound `C[C@H]1CCCCN1C(=O)CCc1cn(-c2ccccc2)c(NC(=O)c2cccc(-c3cn[nH]c3)c2)n1` [Example 31, (S)—N-(4-(3-(2-methylpiperidin-1-yl)-3-oxopropyl)-1-phenyl-1H-imidazol-2-yl)-3-(1H-pyrazol-4-yl)benzamide] has an IC50 of 50 to 100 nM.
Work on `Cn1cc(-c2cccc(C(=O)Nc3nc(CCCC(=O)NC4CCOCC4)cn3-c3ccccc3)c2)cn1` [Example 157, 3-(1-methyl-1H-pyrazol-4-yl)-N-(4-(4-oxo-4-((tetrahydro-2H-pyran-4-yl)amino)butyl)-1-phenyl-1H-imidazol-2-yl)benzamide] yielded an IC50 of less than 50 nM.
`O=C(Nc1nc(CCCCN2CCCCC2)cn1-c1ccccc1)c1cccc(-c2ccc3[nH]ncc3c2)c1` [Example 256, 3-(1H-indazol-5-yl)-N-(1-phenyl-4-(4-(piperidin-1-yl)butyl)-1H-imidazol-2-yl)benzamide] showed an IC50 of less than 50 nM.
`O=C(Nc1nc(CCCCCC(=O)N2CCCCCC2)cn1-c1ccccc1)c1cccc(-c2ccc3scnc3c2)c1` [Example 289, N-(4-(6-(azepan-1-yl)-6-oxohexyl)-1-phenyl-1H-imidazol-2-yl)-3-(benzo[d]thiazol-5-yl)benzamide] showed an IC50 greater than 100 nM.
`O=C(CCCc1cn(-c2ccccc2)c(NC(=O)c2cccc(-c3cn[nH]c3)c2)n1)Nc1ccc(F)cc1F` [Example 66, N-(4-(4-((2,4-difluorophenyl)amino)-4-oxobutyl)-1-phenyl-1H-imidazol-2-yl)-3-(1H-pyrazol-4-yl)benzamide] was tested, and the IC50 was less than 50 nM.
With `Cn1cc(-c2cccc(C(=O)Nc3nc(CCCC(=O)NC4CC4)cn3-c3ccc(F)cc3)c2)cn1` [Example 300, N-(4-(4-(cyclopropylamino)-4-oxobutyl)-1-(4-fluorophenyl)-1H-imidazol-2-yl)-3-(1-methyl-1H-pyrazol-4-yl)benzamide] the IC50 was less than 50 nM.
Work on `CNC(=O)CCCc1cn(-c2ccccc2)c(NC(=O)c2cccc(-c3ccc4[nH]ncc4c3)c2)n1` [Example 244, 3-(1H-indazol-5-yl)-N-(4-(4-(methylamino)-4-oxobutyl)-1-phenyl-1H-imidazol-2-yl)benzamide] yielded an IC50 of less than 50 nM.
`COC[C@@H]1CCCN1NC(=O)Cc1cn(-c2ccccc2)c(NC(=O)c2cccc(-c3cn[nH]c3)c2)n1` [Example 44, (S)—N-(4-(2-((2-(methoxymethyl)pyrrolidin-1-yl)amino)-2-oxoethyl)-1-phenyl-1H-imidazol-2-yl)-3-(1H-pyrazol-4-yl)benzamide] was tested, and the IC50 was greater than 100 nM.
`CN1CCN(C(=O)CCCCCc2cn(-c3ccccc3)c(NC(=O)c3cccc(-c4ccc5ncsc5c4)c3)n2)CC1` [Example 285, 3-(benzo[d]thiazol-6-yl)-N-(4-(6-(4-methylpiperazin-1-yl)-6-oxohexyl)-1-phenyl-1H-imidazol-2-yl)benzamide] gave an IC50 of less than 50 nM.
`Cn1cc(-c2cccc(C(=O)Nc3nc(CCCC(N)=O)cn3-c3ccccc3)c2)cn1` [Example 189, N-(4-(4-amino-4-oxobutyl)-1-phenyl-1H-imidazol-2-yl)-3-(1-methyl-1H-pyrazol-4-yl)benzamide] showed an IC50 of less than 50 nM.
For `Cn1cc(-c2cccc(C(=O)Nc3nc(CCCCCCN4C(=O)CCC4=O)cn3-c3ccccc3)c2)cn1` [Example 226, N-(4-(6-(2,5-dioxopyrrolidin-1-yl)hexyl)-1-phenyl-1H-imidazol-2-yl)-3-(1-methyl-1H-pyrazol-4-yl)benzamide], the IC50 was less than 50 nM.
`Cn1cc(-c2cccc(C(=O)Nc3nc(CCCC(=O)N4CCC(C)(C)CC4)cn3-c3ccccc3)c2)cn1` [Example 167, N-(4-(4-(4,4-dimethylpiperidin-1-yl)-4-oxobutyl)-1-phenyl-1H-imidazol-2-yl)-3-(1-methyl-1H-pyrazol-4-yl)benzamide] gave an IC50 of less than 50 nM.
`C[C@@H]1CCC[C@H](C)N1C(=O)CCCc1cn(-c2ccccc2)c(NC(=O)c2cccc(-c3cn[nH]c3)c2)n1` [Example 63, N-(4-(4-((2R,6S)-2,6-dimethylpiperidin-1-yl)-4-oxobutyl)-1-phenyl-1H-imidazol-2-yl)-3-(1H-pyrazol-4-yl)benzamide] gave an IC50 of less than 50 nM.
